Reference: patent US4647693A, “Antibiotics DO-248-A and B and process for preparing the same” (Shionogi & Co., Ltd., priority 1984, dated 1987)
Converted amounts (≈) assume the structure as drawn. “Also recorded” adds a separate entry of the source. Like-named read-outs stand apart in the source and are kept apart here.

Experiments:
M. tuberculosis H37Rv = test: MIC, two-fold dilution, Dubos Tween albumin liquid medium; format: cell-based; conditions: Mycobacterium tuberculosis, 336 h, 37° C., 2 weeks, read-out: minimal inhibitory concentration (MIC)
Method: (§1) Fast-acid bacillus (0.01 mg) shown in Table 1 was inoculated into 2.0 ml of Dubos Tween albumin liquid medium and the minimal inhibitory concentration (MIC, μg/ml) of DO-248-A (Compound A), kanamycin (KM) and rifampicin (RFP) was measured by two-fold dilution method. The incubation temperature for Mycobacterium marinum was 28° C. and that for all other microorganisms was 37° C. The judgement was made generally 2 weeks later but 1 week later on M. furtuitum and M. chelonei and 5 weeks later on M. xenopi.

M. bovis BCG = test: microbe, parasite or virus in culture; format: cell-based; conditions: Mycobacterium tuberculosis variant bovis BCG, 336 h, read-out: minimal inhibitory concentration (MIC)
M. kansasii KMC1101 = test: MIC, two-fold dilution, Dubos Tween albumin liquid medium; format: cell-based; conditions: Mycobacterium kansasii, read-out: minimal inhibitory concentration (MIC)
M. scrofulaceum KMC2102 = test: as above; format: cell-based; conditions: Mycobacterium scrofulaceum, read-out: minimal inhibitory concentration (MIC)
M. gordonae KMC2201 = test: as above; format: cell-based; conditions: Mycobacterium gordonae, read-out: minimal inhibitory concentration (MIC)
M. szulgai KMC2401 = test: as above; format: cell-based; conditions: 336 h, read-out: minimal inhibitory concentration (MIC)
M. xenopi KMC2301 = test: as above; format: cell-based; conditions: Mycobacterium xenopi
M. simiae KMC1302 = test: as above; format: cell-based; conditions: 336 h, read-out: minimal inhibitory concentration (MIC)
M. avium KMC3101 = test: as above; format: cell-based; conditions: Mycobacterium avium, read-out: minimal inhibitory concentration (MIC)
[1] = test system: M. intracellulare KMC3209; test: as above; format: cell-based; conditions: Mycobacterium intracellulare, read-out: minimal inhibitory concentration (MIC)
[2] = test system: M. nonchromogenicum KMC3602; test: as above; format: cell-based; conditions: 336 h, read-out: minimal inhibitory concentration (MIC)
M. fortuitum KMC4101 = test: as above; format: cell-based; conditions: Mycolicibacterium fortuitum, read-out: minimal inhibitory concentration (MIC)
M. chelonei KMC4201 = test: as above; format: cell-based; conditions: read-out: minimal inhibitory concentration (MIC)
[3] = test system: M. avium-intracellulare clinical isolated strain 16; test: as above; format: cell-based; conditions: 336 h, read-out: minimal inhibitory concentration (MIC)
[4] = test system: fast-acid bacteria including tubercle bacillus; test: Antibacterial activity against fast-acid (acid-fast) bacteria, in words; format: cell-based; conditions: for antibacterial activity against fast-acid (acid-fast) bacteria: in words
Method: as §1

[5] = test system: kanamycin-resistant strains; test: Antibacterial activity against resistant strains, in words; format: cell-based
Method: as §1

[6] = test system: rifanpicin-resistant strains; test: as above; format: cell-based
Method: as §1

[7] = test system: M. aviumintracellulare, a causative microorganism of refractory atypical fast-acid disease; test: Comparative antibacterial activity, in words; format: cell-based; conditions: for activity against the pathogenic bacterium of atypical fast-acid bacterium disease relative to kanamycin: compared with kanamycin
Solubility = format: physicochemical
[8] = 336 h, M. kansasii KMC1101, 37° C., 2 weeks
[9] = 336 h, M. scrofulaceum KMC2102, 37° C., 2 weeks
[10] = 336 h, M. gordonae KMC2201, 37° C., 2 weeks
[11] = M. szulgai KMC2401, 37° C., 2 weeks
[12] = M. xenopi KMC2301, 37° C., 5 weeks, read-out: minimal inhibitory concentration (MIC)
[13] = M. simiae KMC1302, 37° C., 2 weeks
[14] = 336 h, M. avium KMC3101, 37° C., 2 weeks
[15] = 336 h, M. intracellulare KMC3209, 37° C., 2 weeks
[16] = M. nonchromogenicum KMC3602, 37° C., 2 weeks
[17] = 168 h, M. fortuitum KMC4101, 37° C., 1 week
[18] = 168 h, M. chelonei KMC4201, 37° C., 1 week
[19] = M. avium-intracellulare clinical isolated strain 16, 37° C., 2 weeks

NC[C@H]1O[C@H](O[C@H]2[C@H](O)[C@@H](O[C@H]3O[C@H](CO)[C@@H](O)[C@H](N)[C@H]3O)[C@H](N)C[C@@H]2N)[C@H](O)[C@@H](O)[C@@H]1O [KM, kanamycin]
MIC (M. tuberculosis H37Rv): 0.025 µg/mL (≈ 0.0516 µM)
MIC (M. bovis BCG): 0.00156 µg/mL (≈ 0.00322 µM)
MIC (M. kansasii KMC1101; KMC1101, 336 h): 6.25 µg/mL (≈ 12.9 µM)
MIC (M. scrofulaceum KMC2102; KMC2102, 336 h): 0.0125 µg/mL (≈ 0.0258 µM)
MIC (M. gordonae KMC2201; KMC2201, 336 h): 0.39 µg/mL (≈ 0.805 µM)
MIC (M. szulgai KMC2401): 1.56 µg/mL (≈ 3.22 µM)
MIC (M. xenopi KMC2301; KMC2301, read-out: minimal inhibitory concentration (MIC)): 0.1 µg/mL (≈ 0.206 µM)
MIC (M. simiae KMC1302): 12.5 µg/mL (≈ 25.8 µM)
MIC (M. avium KMC3101; KMC3101, 336 h): 3.13 µg/mL (≈ 6.46 µM)
MIC ([1]; KMC3209, 336 h): 0.05 µg/mL (≈ 0.103 µM)
MIC [2]: > 25 µg/mL
MIC (M. fortuitum KMC4101; KMC4101, 168 h): 25 µg/mL (≈ 51.6 µM)
MIC (M. chelonei KMC4201; KMC4201, 168 h): > 25 µg/mL
MIC [3]: 6.25 µg/mL (≈ 12.9 µM)

CO[C@H]1/C=C/O[C@@]2(C)Oc3c(C)c(O)c4c(O)c(c(/C=N/N5CCN(C)CC5)c(O)c4c3C2=O)NC(=O)/C(C)=C\C=C\[C@H](C)[C@H](O)[C@@H](C)[C@@H](O)[C@@H](C)[C@H](OC(C)=O)[C@@H]1C [RFP, rifampicin]
MIC (M. tuberculosis H37Rv): < 0.001 µg/mL
MIC (M. bovis BCG): < 0.001 µg/mL
MIC (M. kansasii KMC1101; [8]): 0.0125 µg/mL (≈ 0.0152 µM)
MIC (M. scrofulaceum KMC2102; [9]): 0.00313 µg/mL (≈ 0.0038 µM)
MIC (M. gordonae KMC2201; [10]): 0.0125 µg/mL (≈ 0.0152 µM)
MIC (M. szulgai KMC2401; [11]): 0.025 µg/mL (≈ 0.0304 µM)
MIC (M. xenopi KMC2301; [12]): 0.00625 µg/mL (≈ 0.00759 µM)
MIC (M. simiae KMC1302; [13]): > 25 µg/mL
MIC (M. avium KMC3101; [14]): 0.2 µg/mL (≈ 0.243 µM)
MIC [1, 15]: < 0.001 µg/mL
MIC [2, 16]: 25 µg/mL (≈ 30.4 µM)
MIC (M. fortuitum KMC4101; [17]): 3.13 µg/mL (≈ 3.8 µM)
MIC (M. chelonei KMC4201; [18]): 6.25 µg/mL (≈ 7.59 µM)
MIC [3, 19]: 3.13 µg/mL (≈ 3.8 µM)

CC(C)c1c(O)cc(C(NC(=N)N)C(=O)NCC(=O)O)cc1O (stereo not drawn) [DO-248-A, N-(α-guanidino-3,5-dihydroxy-4-isopropylphenylacetyl)glycine]
MIC (M. tuberculosis H37Rv): 0.05 µg/mL (≈ 0.154 µM)
MIC (M. bovis BCG): 0.05 µg/mL (≈ 0.154 µM)
MIC (M. kansasii KMC1101; [8]): 0.00313 µg/mL (≈ 0.00965 µM)
MIC (M. scrofulaceum KMC2102; [9]): 0.2 µg/mL (≈ 0.617 µM)
MIC (M. gordonae KMC2201; [10]): 0.00625 µg/mL (≈ 0.0193 µM)
MIC (M. szulgai KMC2401; [11]): 3.13 µg/mL (≈ 9.65 µM)
MIC (M. xenopi KMC2301; [12]): 0.39 µg/mL (≈ 1.2 µM)
MIC (M. simiae KMC1302; [13]): 6.25 µg/mL (≈ 19.3 µM)
MIC (M. avium KMC3101; [14]): 0.78 µg/mL (≈ 2.4 µM)
MIC [1, 15]: 0.025 µg/mL (≈ 0.0771 µM)
MIC [2, 16]: 12.5 µg/mL (≈ 38.5 µM)
MIC (M. fortuitum KMC4101; [17]): > 25 µg/mL
MIC (M. chelonei KMC4201; [18]): > 25 µg/mL
MIC [3, 19]: 0.1 µg/mL (≈ 0.308 µM)
antibacterial activity against fast-acid (acid-fast) bacteria [4]: effective; also recorded: have antibacterial activity
effectiveness against kanamycin-resistant strains [5]: effective; also recorded: have antibacterial activity
effectiveness against rifanpicin-resistant strains [6]: effective; also recorded: have antibacterial activity
activity against the pathogenic bacterium of atypical fast-acid bacterium disease relative to kanamycin [7]: more active
effectiveness against M. aviumintracellulare relative to kanamycin and rifanpicin ([7]; compared with kanamycin and rifanpicin): more effective
Solubility (Solubility; in acetone): slightly soluble
Solubility (Solubility; in benzene): insoluble
Solubility (Solubility; in chloroform): slightly soluble
Solubility (Solubility; in dimethylformamide): readily soluble
Solubility (Solubility; in ethanol): readily soluble
Solubility (Solubility; in ether): insoluble
Solubility (Solubility; in ethylacetate): slightly soluble
Solubility (Solubility; in hexane): insoluble
Solubility (Solubility; in methanol): readily soluble
Solubility (Solubility; in water): soluble

CCc1c(O)cc(C(NC(=N)N)C(=O)NCC(=O)O)cc1O (stereo not drawn) [DO-248-B, N-(α-guanidino-3,5-dihydroxy-4-ethylphenylacetyl)glycine]
effectiveness relative to DO-248-A ([4]; compared with DO-248-A): as effective as DO-248-A
antibacterial activity against fast-acid (acid-fast) bacteria [4]: effective; also recorded: have antibacterial activity
effectiveness against kanamycin-resistant strains [5]: have antibacterial activity
effectiveness against rifanpicin-resistant strains [6]: have antibacterial activity
activity against the pathogenic bacterium of atypical fast-acid bacterium disease relative to kanamycin [7]: more active
